Calls of active or inactive are those of the source.

Data set [1] deals with Vesicular stomatitis virus. Briefly: Antiviral activity against vesicular stomatitis virus. The data set is classed as functional, organism-based.
The next data set deals with Vaccinia virus. The data set is described as follows: Antiviral activity against vaccinia virus. The data set is classed as functional, organism-based. The conditions noted are these: Orthopoxvirus vaccinia.
In the next data set the test system is Reovirus sp. The data set is described as follows: Antiviral activity against Reovirus. The format is functional, organism-based.
Data set [2] deals with Human immunodeficiency virus 1. The data set is described as follows: Antiviral activity against HIV1. The data set is classed as functional, organism-based.
The nature of data set [3]: Cytotoxicity against human MT4 cells after 96 hrs by MTT method. The data set is classed as cell-based.
Data set [4] concerns Bovine viral diarrhea virus 1. Briefly: Antiviral activity against BVDV NADL in MDBK cells assessed as protection from virus-induced cytopathogenicity by MTT method. The format is functional, organism-based. To be noted: Bovine viral diarrhea virus isolates and strains.
Another data set deals with Yellow fever virus. Briefly: Antiviral activity against YFV in BHK cells assessed as protection from virus-induced cytopathogenicity by MTT method. The data set is classed as functional, organism-based.
Data set [5] deals with Respiratory syncytial virus. The data set is described as follows: Antiviral activity against RSV A2 in VERO76 cells assessed as reduction of plaque number by MTT method. The format is functional, organism-based. The conditions noted are these: human respiratory syncytial virus, A2, Vero 76.
In a further data set the test system is Coxsackievirus B2. Briefly: Antiviral activity against coxsackie B2 virus. The format is functional, organism-based.
The subject of the next data set is Poliovirus 1. The data set is described as follows: Antiviral activity against Human poliovirus 1 Sabin. The format is functional.

Take `O=c1ccc2ccc(O)c(CN3CCCCC3)c2o1`: the outcome (in data set [1]; with Vaccinia virus; with Reovirus sp.; in data set [2]; in the data set with Coxsackievirus B2; in the data set on Poliovirus 1) was inactive. This molecule also gave a CC50 at 96 h in [3] above 100 µM. In addition, the concentration giving a half-maximal response (EC50) (in data set [4]; in the data set on Yellow fever virus; in data set [5]) was above 100 µM each time.
Regarding `COc1ccc2c(=O)c(Cc3c(O)ccc4ccc(=O)oc34)c(N3CCCC3)oc2c1`, the result (in [1]; with Vaccinia virus; in the data set with Reovirus sp.; in data set [2]; in the data set on Poliovirus 1) was inactive. For the same molecule, the CC50 at 96 h in [3] is above 100 µM. Moreover, the concentration for a half-maximal effect (EC50) (in [4]; in the data set on Yellow fever virus; in data set [5]) was above 100 µM in each case.
